Laboratory results from patent publication US11571484B2, “Compositions that target tumor-associated macrophages and methods of use therefor” (Sanford Burnham Prebys Medical Discovery Institute, priority 2017, dated 2023).
Ends that are not written are not given here. FAM = 5(6)-carboxyfluorescein; Ahx = NCCCCCC(=O)O

System: MRC1/CD206-expressing tumor-associated macrophages (MEMs) in 4T1 tumors
Assay: Free peptide homing and immunofluorescence in the orthotopic 4T1 breast tumor model
Settings: 30 nmoles i.v.
Experimental: (SEQ ID NO: 5) control peptide were injected intravenously into 4T1 tumor-bearing mice and allowed to circulate for 2 h. Mice were then sacrificed and tumor and tissues were analyzed by immunofluorescence using rabbit anti-FAM (green) and rat anti-CD206 or rat anti-TIE2 (red) antibodies, and counterstained with DAPI. All images were taken under the same imaging conditions. FAM-UNO accumulated in macrophages within tumors and lymph nodes positive for CD206 staining (A, B, C) and TIE2 (D, and H: Blow up of D). […] To ascertain that anti-CD206 is capable of detecting CD206 in the liver, an image was acquired with longer exposure time from an uninjected animal (FIG. 25). […] Green: FAM-peptide; Red: CD206 or TIE2, Blue: DAPI. Representative fields from multiple sections prepared from at least 3 tumors (n≥3 mice) are shown.
Tumor models were induced according to protocols approved by the Estonian Ministry of Agriculture, Committee of Animal Experimentation (permit #48). For the 4T1 breast model, 8-week old female Balb/c mice were injected in the mammary fat pad with 10^6 cells dispersed in 50 μL of PBS. For homing studies, mice were used 10 days later, when the tumor had reached ˜150 mm^3. For MCF-7 breast model, 8-week old female nude mice were implanted with an estrogen pellet, and 1 week later inoculated with 5×10^6 MCF-7 cells in 100 μL of cold Matrigel (BD Biosciences, CA, USA). Mice were used for homing studies three weeks later (tumor volume˜150 mm^3). For the metastatic gastric carcinoma, 10^6 MKN45-P cells in PBS were injected intraperitoneally in 8-week old female nude mice. Mice were used for homing studies two weeks later. For the metastatic melanoma model, 2×10^5 B16F10 cells were injected intravenously in 100 μL of PBS in C57 BL6 mice. The mice were used for homing studies 10 days after. For the angiogenic glioblastoma model, WT-GBM 24, 7×10^5 cells were stereotactically injected in the right striatum of Fox/Nu mice 2 mm lateral and posterior of bregma of 2.5 mm deep. The mice were used for homing studies 6-7 days after the injection.
For free peptide homing studies, mice were injected intravenously with 30 nmoles of FAM-peptides in 100 μL of PBS. For nanoparticle homing studies-FAM-UNO—NP-PTX-, mice were injected intravenously in mice bearing MCF-7 breast tumors with 1 mg of Polymer in 100 μL pf PBS and allowed to circulate for 6 h. For tissue collection, the mice were anesthetized and the tissues collected and immediately placed in 4% cold PFA and left overnight at 4-C. Tissues were washed with PBS for 2 h at room temperature and cryoprotected with sucrose 15% at 4-C overnight and then in sucrose 30% at 4·C overnight. The tumor and the control organs were placed together in the same block with OCT compound (Leica Biosystems, Wetzlar, Germany), snap-frozen in isopentane, and sectioned at 10 μm. FAM was detected using Rabbit anti-FITC (Invitrogen, CA, USA. Catalog # A-889) at a dilution of 1/100 and using Alexa Fluor-546 anti-rabbit antibody (Invitrogen, Ca, USA. Catalog # A-11035) at a dilution of 1/200. CD31 was detected using rat anti-mouse CD31 (BD Biosciences, CA, USA. Catalog #: 553370), TIE2 was detected using rat anti-mouse TIE2 (Biolegend, CA, USA. Catalog #124001), CD209 was detected using rat anti-mouse CD209 (Biolegend, CA, USA. Catalog #147802), HLA ABC was detected using rat anti Human HLA ABC (Bio-Rad, CA, USA. Product code MCA485G), and CD206 was detected using ratanti-mouse CD206 (Bio-Rad, CA, USA. Product code MCA2235GA); using 1/100 primary antibody dilution and Alexa Fluor-647 anti-Rat antibody (Invitrogen, CA, USA. Catalog #21247) at 1/200 dilution. To quantify FAM signal from confocal images, the green channel of images taken by using 20× magnification objective was opened with ImageJ, converted to 8-bit grayscale and the integrated pixel intensity was measured. Different regions of tumors from three different mice were used.

Substance | accumulation in MEMs / tumor homing (2 h circulation) | time the signal remained readily detectable in MEMs after administration | accumulation in liver, heart, lungs and spleen (2 h) | internalization in MEMs (high resolution confocal microscopy) (2 h) | overlap with CD209 in sections from 4T1 tumors (2 h) | cells positive for FAM-UNO that were also positive for CD206, in tumors (2 h circulation) | FAM fluorescence in the kidneys (2 h time point)
FAM-CSPGAK: FAM-labeled linear CSPGAK (SEQ ID NO: 6) (not fully specified; FAM label) | accumulated in MEMs in orthotopic 4T1 breast tumor-bearing mice at levels comparable to FAM-UNO |  |  |  |  |  | 
FAM-UNO: FAM-labeled UNO peptide CSPGAKVRC (SEQ ID NO: 1); 5(6)-carboxyfluorescein with 6-aminohexanoic acid spacer at the N-terminus ({FAM-Ahx}-CSPGAKVRC; cysteine pairing not given here) | accumulated in MEMs in tumors and in sentinel lymph nodes | up to 12 h | low | internalized in MEMs | only a moderate overlap with CD209 | 96% | FAM-fluorescence was observed in the kidneys
